The results in this text go back to ChEMBL document CHEMBL1128944, “Potent cyclic urea HIV protease inhibitors with benzofused heterocycles as P2/P2 groups” (Bioorg Med Chem Lett, 1996).

As usually defined, the Ki is the dissociation constant of the complex between target and ligand, obtained from inhibition or displacement. Read a high Ki as lower affinity. Broadly, the IC90 is the point of the concentration-response curve where the effect stands at 90%. Higher therefore signals weaker potency. Broadly, the Cmax is the highest concentration seen after dosing. In general, bioavailability refers to the share of a dose that reaches the circulation, judged against a reference dose that is usually intravenous. Low values mean poor availability, high ones good availability. By clearance is commonly meant the rate of elimination divided by the concentration. The half-life is how long it takes for the measured level to halve. Read a low half-life as rapid decline.

Data set [1] concerns the target Human immunodeficiency virus type 1 protease (Human immunodeficiency virus 1, UniProt Q72874). Description: Inhibitory activity was evaluated against HIV protease.
The target in data set [2] is Human immunodeficiency virus type 1 protease (Human immunodeficiency virus 1) (UniProt Q72874). The data set is described as follows: Inhibitory activity against HIV-1 RF infected MT-2 cells. It counts as functional, cell-based. As to conditions: MT2.
Data set [3] can be described thus: Maximum concentration was evaluated in dog plasma. It counts as ADME, organism-based, Canis lupus familiaris.
A short description of data set [4]: Bioavailability was evaluated in dog. It counts as ADME, organism-based, Canis lupus familiaris. Conditions: in vivo.
Data set [5] can be described thus: Clearance value was evaluated in dog plasma. It counts as ADME, organism-based, Canis lupus familiaris.
Data set [6] can be described thus: Plasma Clearance was evaluated in rats, iv. It counts as ADME, organism-based. Conditions: rat.
Data set [7] can be described thus: Half life period was evaluated in rats. It counts as ADME, organism-based. As to conditions: rat, in vivo.
Data set [8] in a line: Half life period was evaluated in dog. It counts as ADME, organism-based, Canis lupus familiaris. As to conditions: in vivo.

Each structure is given as a SMILES string.

For `O=C1N(Cc2ccc3nc(O)oc3c2)[C@H](Cc2ccccc2)[C@H](O)[C@@H](O)[C@@H](Cc2ccccc2)N1Cc1ccc2nc(O)oc2c1`, in data set [1], the inhibition constant Ki worked out at 0.18 nM. Further, the 90% effect concentration (IC90) in data set [2] is 40 nM.
Turning to `O=C1N(Cc2ccc3[nH]nnc3c2)[C@H](Cc2ccccc2)[C@H](O)[C@@H](O)[C@@H](Cc2ccccc2)N1Cc1ccc2[nH]nnc2c1`, the IC90 in data set [2] was 530 nM.
`O=C1N(Cc2ccc3oc(O)nc3c2)[C@H](Cc2ccccc2)[C@H](O)[C@@H](O)[C@@H](Cc2ccccc2)N1Cc1ccc2oc(O)nc2c1` gave a Ki in data set [1] of 3.9 nM. In data set [2], this molecule came in with an IC90 of 579 nM.
As to `Nc1nc2ccc(CN3C(=O)N(Cc4ccc5nc(N)oc5c4)[C@H](Cc4ccccc4)[C@H](O)[C@@H](O)[C@H]3Cc3ccccc3)cc2o1`, in data set [1], the affinity, expressed as Ki, was 0.2 nM. Besides, in data set [2], the IC90 stood at 84 nM.
Taken in the same sequence, the figures for `O=C1Cc2cc(CN3C(=O)N(Cc4ccc5c(c4)CC(=O)N5)[C@H](Cc4ccccc4)[C@H](O)[C@@H](O)[C@H]3Cc3ccccc3)ccc2N1` were 0.14 nM and 370 nM.
For the molecule `O=C1N(Cc2ccc3nc(O)cnc3c2)[C@H](Cc2ccccc2)[C@H](O)[C@@H](O)[C@@H](Cc2ccccc2)N1Cc1ccc2nc(O)cnc2c1`, the Ki in data set [1] came out at 490 nM. In data set [2], this molecule came in with a concentration for an effect of 90% (IC90) of 7800 nM.
Taken in the same sequence, the figures for `O=C1CNc2cc(CN3C(=O)N(Cc4ccc5c(c4)NCC(=O)N5)[C@H](Cc4ccccc4)[C@H](O)[C@@H](O)[C@H]3Cc3ccccc3)ccc2N1` were 6.1 nM and 7700 nM.
Take `O=C1N(Cc2ccc3[nH]ccc3c2)[C@H](Cc2ccccc2)[C@H](O)[C@@H](O)[C@@H](Cc2ccccc2)N1Cc1ccc2[nH]ccc2c1`: the Ki in data set [1] stood at 1.3 nM. In data set [2], this molecule showed an IC90 of 190 nM.
On to `O=C1N(Cc2ccc3sc(O)nc3c2)[C@H](Cc2ccccc2)[C@H](O)[C@@H](O)[C@@H](Cc2ccccc2)N1Cc1ccc2sc(O)nc2c1`, for which the affinity in data set [1], expressed as Ki, was 130 nM.
With `O=C1N(Cc2ccc3ncoc3c2)[C@H](Cc2ccccc2)[C@H](O)[C@@H](O)[C@@H](Cc2ccccc2)N1Cc1ccc2ncoc2c1`, the affinity in data set [1], expressed as Ki, was 3.4 nM. The IC90 in data set [2] was found to be 440 nM.
On to `O=C1N(Cc2ccc3nn[nH]c3c2)[C@H](Cc2ccccc2)[C@H](O)[C@@H](O)[C@@H](Cc2ccccc2)N1Cc1ccc2nn[nH]c2c1`, for which affinity in data set [1] was put at a Ki of 0.09 nM.
In data set [1], `O=C1N(Cc2ccc3c(c2)NS(=O)(=O)N3)[C@H](Cc2ccccc2)[C@H](O)[C@@H](O)[C@@H](Cc2ccccc2)N1Cc1ccc2c(c1)NS(=O)(=O)N2` yielded an inhibitory constant (Ki) of 0.19 nM. In addition, it took 32000 nM to reach the 90% level in data set [2] (IC90).
`O=C1N(Cc2ccc3scnc3c2)[C@H](Cc2ccccc2)[C@H](O)[C@@H](O)[C@@H](Cc2ccccc2)N1Cc1ccc2scnc2c1` gave an inhibition constant (Ki) in data set [1] of 28 nM. The molecule further showed an IC90 in data set [2] of 3200 nM.
For `O=C1N(Cc2ccc3[nH]c(O)nc3c2)[C@H](Cc2ccccc2)[C@H](O)[C@@H](O)[C@@H](Cc2ccccc2)N1Cc1ccc2[nH]c(O)nc2c1`, in that order: less than 0.01 nM and more than 65000 nM.
With `O=C1N(Cc2ccc3[nH]ncc3c2)[C@H](Cc2ccccc2)[C@H](O)[C@@H](O)[C@@H](Cc2ccccc2)N1Cc1ccc2[nH]ncc2c1`, the concentration in data set [3] peaked (Cmax) at 600 ng/mL. The molecule further registered a Ki in data set [1] of 0.018 nM. For the same molecule, the bioavailability in data set [4] stood at 13%. Further, the figures for the clearance in data set [5] and in data set [6] were 18.3 mL/min/kg and 3.33 mL/min/kg, respectively. Besides, in data set [2], the IC90 worked out at 8 nM. The half-life in data set [7] was 2.7 h; in data set [8], 2 h.
`O=C1N(Cc2ccc3nc(O)sc3c2)[C@H](Cc2ccccc2)[C@H](O)[C@@H](O)[C@@H](Cc2ccccc2)N1Cc1ccc2nc(O)sc2c1` displayed an inhibitory constant (Ki) in data set [1] of 0.91 nM. The molecule further showed an IC90 in data set [2] of 109 nM.
In the case of `O=C1N(Cc2ccc(CO)cc2)[C@H](Cc2ccccc2)[C@H](O)[C@@H](O)[C@@H](Cc2ccccc2)N1Cc1ccc(CO)cc1` [DMP-323], in data set [6], the clearance is 118 mL/min/kg. In data set [2], this molecule displayed an IC90 of 100 nM.
As to `Nc1nc2cc(CN3C(=O)N(Cc4ccc5[nH]c(N)nc5c4)[C@H](Cc4ccccc4)[C@H](O)[C@@H](O)[C@H]3Cc3ccccc3)ccc2[nH]1`, in data set [1], the affinity, expressed as Ki, was 5.8 nM. In data set [2], this molecule displayed a 90% effect concentration (IC90) of 8100 nM.
For the molecule `O=C1N(Cc2ccc3nc(S)oc3c2)[C@H](Cc2ccccc2)[C@H](O)[C@@H](O)[C@@H](Cc2ccccc2)N1Cc1ccc2nc(S)oc2c1`, the inhibitory constant (Ki) in data set [1] was 4.8 nM. In addition, it took 5100 nM to reach the 90% level in data set [2] (IC90).
Consider `Nc1nc2ccc(CN3C(=O)N(Cc4ccc5nc(N)sc5c4)[C@H](Cc4ccccc4)[C@H](O)[C@@H](O)[C@H]3Cc3ccccc3)cc2s1`, for which the inhibition constant Ki in data set [1] was 5.7 nM. Also, the IC90 in data set [2] stood at 270 nM.
For `O=C1N(Cc2ccc3c[nH]nc3c2)[C@H](Cc2ccccc2)[C@H](O)[C@@H](O)[C@@H](Cc2ccccc2)N1Cc1ccc2c[nH]nc2c1`, in that order: 0.018 nM and 49 nM.
For `O=C1Nc2ccc(CN3C(=O)N(Cc4ccc5c(c4)C(=O)C(=O)N5)[C@H](Cc4ccccc4)[C@H](O)[C@@H](O)[C@H]3Cc3ccccc3)cc2C1=O`, in that order: 0.81 nM and 8500 nM.
Taken in the same sequence, the figures for `Nc1nc2cc(CN3C(=O)N(Cc4ccc5sc(N)nc5c4)[C@H](Cc4ccccc4)[C@H](O)[C@@H](O)[C@H]3Cc3ccccc3)ccc2s1` were 190 nM and 950 nM.
Consider `O=C1N(Cc2ccc3[nH]cnc3c2)[C@H](Cc2ccccc2)[C@H](O)[C@@H](O)[C@@H](Cc2ccccc2)N1Cc1ccc2[nH]cnc2c1`, for which the inhibitory constant (Ki) in data set [1] is 11 nM. It took 19000 nM to reach the 90% level in data set [2] (IC90).
